Measured values as given in PubChem BioAssay AID330 (DTP/NCI, 2004).
Several values for one entry are separate records, joined by “and”; a condition that tells them apart may be missing. Equal values may be shown once. Inconclusive results and toxic doses are left out. Rule for the calls: active = survival T/C of 150% or more; inactive = T/C below 125% in these data. Square brackets hold non-standard residues; d marks the D form. Peptide text beside a SMILES is read from it. * marks the point of attachment. Cbz = O=C(OCc1ccccc1)*; Nva = CCC[CH](N)C(=O)O

Test system: P388 leukemia ip, CD2F1 mice, survival T/C
Test: NCI In Vivo Anticancer Drug Screen. Data for tumor model P388 Leukemia (intraperitoneal) in CD2F1 (CDF1) mice
Details: endpoint: median survival time, higher = longer survival
Outline: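 Mice carrying the transplanted tumor received test compound or vehicle. Survival was recorded in each group, and the value is the treated-group measurement divided by that of the vehicle-treated control group.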

[1] = dose: 60.0 mg/kg/injection, schedule: Q01DX005 (ip), vehicle: Klucel (hydroxypropylcellulose) (HPC)
[2] = dose: 120.0 mg/kg/injection, schedule: Q01DX005 (ip), vehicle: Klucel (hydroxypropylcellulose) (HPC)
[3] = dose: 100.0 mg/kg/injection, schedule: Q01DX009 (ip), vehicle: saline with Tween-80
[4] = dose: 200.0 mg/kg/injection, schedule: Q01DX009 (ip), vehicle: saline with Tween-80
[5] = dose: 50.0 mg/kg/injection, schedule: Q01DX009 (ip), vehicle: Klucel (hydroxypropylcellulose) (HPC)
[6] = dose: 100.0 mg/kg/injection, schedule: Q01DX009 (ip), vehicle: Klucel (hydroxypropylcellulose) (HPC)
[7] = dose: 200.0 mg/kg/injection, schedule: Q01DX009 (ip), vehicle: Klucel (hydroxypropylcellulose) (HPC)
[8] = dose: 100.0 mg/kg/injection, schedule: Q04DX002 (ip), vehicle: saline with Tween-80
[9] = dose: 25.0 mg/kg/injection, schedule: Q01DX009 (ip), vehicle: saline with Tween-80
[10] = dose: 50.0 mg/kg/injection, schedule: Q01DX009 (ip), vehicle: saline with Tween-80

Measured: T/C

C=C(C)C12CC(C)C34OC5(CCCCCCCC(C)C6C(C)C(OC(=O)c7ccccc7)C(O)(C(O)C7(CO)OC7C3C1O5)C64)O2 (centres undefined)
inactive: dose: 3.0 micrograms/kg/injection, schedule: Q01DX009 (ip), vehicle: saline + alcohol 107 % of control | dose: 5.0 micrograms/kg/injection, schedule: Q01DX009 (ip), vehicle: saline + alcohol 109 % of control | dose: 10.0 micrograms/kg/injection, schedule: Q01DX009 (ip), vehicle: saline + alcohol 118 % of control

O=C(CN1CC1)NCCCCCCCCCNC(=O)CN1CC1
active: dose: 5.0 mg/kg/injection, schedule: Q01DX009 (ip), vehicle: saline with Tween-80 150 % of control | dose: 10.0 mg/kg/injection, schedule: Q01DX009 (ip), vehicle: saline with Tween-80 186 % of control
inactive: dose: 2.5 mg/kg/injection, schedule: Q01DX009 (ip), vehicle: saline with Tween-80 90 % of control

CCCCCCCCCc1cc(=O)[nH]c(=S)[nH]1
inactive: dose: 15.0 mg/kg/injection, schedule: Q01DX005 (ip), vehicle: Klucel (hydroxypropylcellulose) (HPC) 99 % of control | dose: 30.0 mg/kg/injection, schedule: Q01DX005 (ip), vehicle: Klucel (hydroxypropylcellulose) (HPC) 102 % of control | [1] 90 % of control and 93 % of control | [2] 100 % of control

O=C1CCSc2ccccc21
inactive: [3] 95 % of control | [4] 109 % of control

O=c1n(-c2ccccc2)c(=O)n2c(=O)n(-c3ccccc3)c(=O)n12
inactive: [5] 105 % of control | [6] 93 % of control | [7] 89 % of control

CCCCCn1c(Cl)c(C=O)c2ccccc21
inactive: dose: 100.0 mg/kg/injection, schedule: Q04DX002 (ip), vehicle: Klucel (hydroxypropylcellulose) (HPC) 97 % of control | dose: 200.0 mg/kg/injection, schedule: Q04DX002 (ip), vehicle: Klucel (hydroxypropylcellulose) (HPC) 98 % of control | dose: 400.0 mg/kg/injection, schedule: Q04DX002 (ip), vehicle: Klucel (hydroxypropylcellulose) (HPC) 100 % of control

COc1ccc2c(c1)N(C(=O)CN1CCN(C)CC1)c1ccccc1S2
inactive: dose: 25.0 mg/kg/injection, schedule: Q04DX002 (ip), vehicle: saline 99 % of control | dose: 50.0 mg/kg/injection, schedule: Q04DX002 (ip), vehicle: saline 102 % of control | [8] 100 % of control | dose: 100.0 mg/kg/injection, schedule: Q04DX002 (ip), vehicle: saline 99 % of control

O=[N+]([O-])c1nncs1
inactive: dose: 6.25 mg/kg/injection, schedule: Q04DX003 (ip), vehicle: saline with Tween-80 105 % of control | dose: 12.5 mg/kg/injection, schedule: Q04DX003 (ip), vehicle: saline with Tween-80 100 % of control | dose: 25.0 mg/kg/injection, schedule: Q04DX003 (ip), vehicle: saline with Tween-80 110 % of control

CC(N)C(=O)O (centres undefined)
inactive: dose: 50.0 mg/kg/injection, schedule: Q01DX009 (ip), vehicle: saline 115 % of control | dose: 100.0 mg/kg/injection, schedule: Q01DX009 (ip), vehicle: saline 105 % of control | dose: 200.0 mg/kg/injection, schedule: Q01DX009 (ip), vehicle: saline 106 % of control

CCC(C(=O)O)C(=O)O.[NH-]CC[NH-].[Pt+2]
active: [9] 190 % of control | [5] 160 % of control | [10] 218 % of control | dose: 50.0 mg/kg/injection, schedule: Q04DX003 (ip), vehicle: saline with Tween-80 181 % of control | [6] 205 % of control | dose: 100.0 mg/kg/injection, schedule: Q04DX003 (ip), vehicle: saline with Tween-80 195 % of control | [7] 196 % of control | dose: 400.0 mg/kg/injection, schedule: Q04DX003 (ip), vehicle: saline 155 % of control
inactive: dose: 33.0 mg/kg/injection, schedule: Q04DX003 (ip), vehicle: saline 120 % of control

CN1CC[N+](C)=C1c1nc2ccccc2n1C
inactive: dose: 12.5 mg/kg/injection, schedule: Q01DX009 (ip), vehicle: suspension in saline 105 % of control | dose: 25.0 mg/kg/injection, schedule: Q01DX009 (ip), vehicle: suspension in saline 117 % of control | dose: 50.0 mg/kg/injection, schedule: Q01DX009 (ip), vehicle: suspension in saline 118 % of control

CC1(C)CC(=O)c2c(ncc3cc4c(cc23)OCO4)C1
inactive: [8] 110 % of control | dose: 200.0 mg/kg/injection, schedule: Q04DX002 (ip), vehicle: saline with Tween-80 118 % of control

Cc1cc(=O)n(-c2cc(C)c3cc(Cl)ccc3n2)[nH]1
inactive: dose: 100.0 mg/kg/injection, schedule: Q01DX001 (ip), vehicle: saline with Tween-80 93 % of control | dose: 200.0 mg/kg/injection, schedule: Q01DX001 (ip), vehicle: saline with Tween-80 94 % of control | dose: 400.0 mg/kg/injection, schedule: Q01DX001 (ip), vehicle: saline with Tween-80 104 % of control

O=C1NC(=O)C2=C1CCC2Br (centres undefined)
inactive: dose: 3.13 mg/kg/injection, schedule: Q01DX009 (ip), vehicle: distilled water + Tween-80 101 % of control | dose: 6.25 mg/kg/injection, schedule: Q01DX009 (ip), vehicle: distilled water + Tween-80 102 % of control

CCn1c(=O)c2ncnnc2n(CC)c1=O
inactive: dose: 6.25 mg/kg/injection, schedule: Q01DX009 (ip), vehicle: Klucel (hydroxypropylcellulose) (HPC) 104 % of control | dose: 12.5 mg/kg/injection, schedule: Q01DX009 (ip), vehicle: Klucel (hydroxypropylcellulose) (HPC) 111 % of control

CCCC(NC(=O)OCc1ccccc1)C(=O)NC(CO)C(=O)O (centres undefined) (Cbz-[Nva]-Ser-OH; configuration not given here)
inactive: dose: 50.0 mg/kg/injection, schedule: Q01DX005 (ip), vehicle: Klucel (hydroxypropylcellulose) (HPC) 94 % of control | dose: 100.0 mg/kg/injection, schedule: Q01DX005 (ip), vehicle: Klucel (hydroxypropylcellulose) (HPC) 108 % of control | dose: 200.0 mg/kg/injection, schedule: Q01DX005 (ip), vehicle: Klucel (hydroxypropylcellulose) (HPC) 94 % of control

O=C1CCCC2=C1C(c1ccccc1)C1=C(CCCC1=O)O2
inactive: dose: 60.0 mg/kg/injection, schedule: Q01DX005 (ip), vehicle: saline with Tween-80 100 % of control | dose: 120.0 mg/kg/injection, schedule: Q01DX005 (ip), vehicle: saline with Tween-80 94 % of control | dose: 240.0 mg/kg/injection, schedule: Q01DX005 (ip), vehicle: saline with Tween-80 92 % of control

CCCc1c(C(=O)OCC)c(-c2ccccc2)c(CCC)c2c1-c1cccc3cccc-2c13
inactive: [10] 99 % of control | [3] 95 % of control | [4] 92 % of control

CC(CC(N)C(=O)O)C(=O)O (centres undefined)
inactive: dose: 50.0 mg/kg/injection, schedule: Q01DX005 (ip), vehicle: saline 103 % of control | [5] 103 % of control | dose: 100.0 mg/kg/injection, schedule: Q01DX005 (ip), vehicle: saline 98 % of control | [6] 102 % of control | dose: 200.0 mg/kg/injection, schedule: Q01DX005 (ip), vehicle: saline 100 % of control | [7] 103 % of control | dose: 400.0 mg/kg/injection, schedule: Q01DX009 (ip), vehicle: Klucel (hydroxypropylcellulose) (HPC) 103 % of control

O=C(O)c1cn2c(n1)sc1ccccc12
inactive: dose: 100.0 mg/kg/injection, schedule: Q01DX001 (ip), vehicle: Klucel (hydroxypropylcellulose) (HPC) 97 % of control | dose: 200.0 mg/kg/injection, schedule: Q01DX001 (ip), vehicle: Klucel (hydroxypropylcellulose) (HPC) 92 % of control | dose: 400.0 mg/kg/injection, schedule: Q01DX001 (ip), vehicle: Klucel (hydroxypropylcellulose) (HPC) 96 % of control

CCc1c(-c2ccccc2)n[nH]c1-c1[nH]nc(-c2ccccc2)c1CC
inactive: [1] 96 % of control | [2] 96 % of control | dose: 240.0 mg/kg/injection, schedule: Q01DX005 (ip), vehicle: Klucel (hydroxypropylcellulose) (HPC) 96 % of control

CCCCCCC(=O)CC(SCC)c1ccccc1 (centres undefined)
inactive: [10] 106 % of control | [3] 113 % of control | [4] 114 % of control

CC(=O)Oc1c2occc2cc2ccc(=O)oc12
inactive: dose: 50.0 mg/kg/injection, schedule: Q01DX005 (ip), vehicle: saline with Tween-80 99 % of control | dose: 100.0 mg/kg/injection, schedule: Q01DX005 (ip), vehicle: saline with Tween-80 98 % of control | dose: 200.0 mg/kg/injection, schedule: Q01DX005 (ip), vehicle: saline with Tween-80 100 % of control

CC(=O)SCc1nc2ccccc2[nH]1
inactive: [9] 107 % of control | [10] 105 % of control | [3] 108 % of control

N#CCCN(C(=O)Nc1ccc(Cl)c(Cl)c1)C1CCCCC1
inactive: dose: 12.5 mg/kg/injection, schedule: Q01DX009 (ip), vehicle: saline with Tween-80 98 % of control | [9] 101 % of control and 104 % of control | [10] 100 % of control and 103 % of control | [3] 91 % of control and 97 % of control
